The experiment deals with PDE IV. Briefly: Inhibition of PDE IV activity (Bauer and Schwabe method adapted to microtiter plates). The experiment is classed as biochemical. The following applies: Table A; two-step PDE / 5'-nucleotidase assay, ion-exchange separation.
For `COc1ccc(C(=O)Nc2c(Cl)cncc2Cl)c2c1OC(C)(C)C2` [Compound 1, 2,3-Dihydro-2,2-dimethyl-7-methoxybenzofuran-4-carboxylic acid-N-3,5-dichloro-4-pyridylamide], the “Inhibition of PDE IV activity, -log IC50” value worked out at 8.47.
Next, `COc1ccc(C(=O)Nc2c(Cl)cncc2Cl)c2c1OC1(CCCC1)C2` [Compound 2, 2,3-Dihydro-7-methoxybenzofuran-2-spiro-1'-cyclopentan-4-carboxylic acid-N-3,5-dichloro-4-pyridylamide]: 9.42.
For `O=C(Nc1c(Cl)cncc1Cl)c1ccc(OC(F)F)c2c1CC1(CCCC1)O2` [Compound 3, 7-Difluoromethoxy-2,3-dihydrobenzofuran-2-spiro-1'-cyclopentane-4-carboxylic acid-N-3,5-dichloro-4-pyridylamide] the value was 9.87; for `COc1ccc(C(=O)Nc2c(Cl)cncc2Cl)c2c1OC1(CCCCC1)C2` [Compound 4, 2,3-dihydro-7-methoxybenzofuran-2-spiro-1'-cyclohexane-4-carboxylic acid-N-3,5-dichloro-4-pyridylamide], 9.09.
For `COc1ccc(C(=O)Nc2c(Cl)cncc2Cl)c2c1OC1(CCOCC1)C2` [Compound 5, 2,3-Dihydro-7-methoxybenzofuran-2-spiro-1'-(4'-oxacyclohexane)-4-carboxylic acid-N-3,5-dichloro-4-pyridylamide] the value was 8.57; for `CCC1(CC)Cc2c(C(=O)Nc3c(Cl)cncc3Cl)ccc(OC)c2O1` [Compound 6, 2,2-Diethyl-2,3-dihydro-7-methoxybenzofuran-4-carboxylic acid-N-3,5-dichloro-4-pyridylamide], 8.63; for `COc1ccc(C(=O)Nc2c(Cl)cccc2Cl)c2c1OC1(CCCC1)C2` [Compound 7, 2,3-Dihydro-7-methoxybenzofuran-2-spiro-1'-cyclopentane-4-carboxylic acid-2,6-dichloroanilide], 8.57.
`COc1ccc(C(=O)Nc2c(F)cccc2F)c2c1OC1(CCCC1)C2` [Compound 8, 2,3-Dihydro-7-methoxybenzofuran-2-spiro-1'-cyclopentane-4-carboxylic acid-2,6-difluoroanilide]: the “Inhibition of PDE IV activity, -log IC50” value is recorded as 8.42.

(Values after patent US6121274A, “Dihydrobenzofurane” (Byk Gulden Lomberg Chemische Fabrik GmbH, priority 1994, dated 2000).)
